Data from patent US5622983A, “N-substituted cycloalkyl and polycycloalkyl α-substituted Trp-Phe- and phenethylamine derivatives” (Warner-Lambert Company, priority 1995, dated 1997).
Read-outs that look alike come from different tables or passages of the source.

Experiments:
Central CCK Receptors = target: T1, Central CCK Receptors (Mus musculus, UniProt P56481); test: Binding to central CCK receptors (tritiated-pentagastrin displacement, cerebral cortical membranes)
T1 sequence (P56481 1-453): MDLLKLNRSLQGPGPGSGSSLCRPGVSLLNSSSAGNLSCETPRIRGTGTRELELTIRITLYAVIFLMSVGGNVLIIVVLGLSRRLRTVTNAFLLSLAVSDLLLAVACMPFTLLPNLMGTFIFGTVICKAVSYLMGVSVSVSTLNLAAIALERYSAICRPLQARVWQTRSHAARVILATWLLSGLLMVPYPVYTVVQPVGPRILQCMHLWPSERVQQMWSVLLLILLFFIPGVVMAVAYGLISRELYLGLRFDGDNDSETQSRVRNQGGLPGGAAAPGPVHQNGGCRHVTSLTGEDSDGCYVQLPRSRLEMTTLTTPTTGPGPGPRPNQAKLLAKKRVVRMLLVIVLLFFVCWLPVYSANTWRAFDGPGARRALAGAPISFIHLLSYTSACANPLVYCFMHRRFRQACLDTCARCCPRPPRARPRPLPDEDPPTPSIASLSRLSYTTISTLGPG
Experimental: The biological activity of compounds of the present invention was evaluated employing an initial screening test which rapidly and accurately measured the binding of the tested compound to known CCK receptor sites.
The resulting suspension was centrifuged, the supernate was discarded, and the pellet was washed by resuspension in Tris-HCl buffer followed by recentrifugation.
In saturation studies, cerebral cortical membranes were incubated at 23° C. for 120 minutes in a final volume of 500 μliter of Hepes incubation buffer (pH 7.2) together with 0.2-20 nM tritiated-pentagastrin (Amersham International, England).
In each case, the nonspecific binding was defined as that persisting in the presence of the unlabeled octapeptide CCK26-33 (10^-6 M).
Following incubation, radioactivity bound to membranes was separated from that free in solution by rapid filtration through Whatman GF/B filters and washed three times with 4 mL of ice cold Tris-HCl buffer.
The specific binding to CCK receptor sites was defined as the total bound tritiated-pentagastrin minus the amount of tritiated-pentagastrin bound in the presence of 10^-6 octapeptide, CCK26-33.
The inhibition constant (Ki) of the test compound was then calculated according to the Cheng-Prusoff equation: [formula] where [L] is the concentration of radiolabel and Ka is the equilibrium dissociation constant.

[1] = Palatable Diet Feeding assay; type: in vivo, rat; conditions: dose producing 50% of the maximum effect possible (zero food intake)
Experimental: In the Palatable Diet Feeding assay, adult male Hooded Lister rats weighing between 200-400 g were housed individually and trained to eat a palatable diet. This diet consisted of Nestles sweetened condensed milk, powdered rat food and rat water which when blended together set to a firm consistency. […] The intake of palatable diet was measured by weighing the food container before and after the 30-minute access period (limits of accuracy 0.1 g). Care was taken to collect and correct for any spillage of the diet. Rats had free access to pellet food and water except during the 30-minute test period.
After the training period, dose-response curves were constructed for CCK8 and several representative compounds of the present invention (n=8-10 rats per dose level).

[2] = read-out: Binding to Central CCK Receptors Ki, displacement of 2 nM tritiated-pentagastrin, mouse cerebral cortical membranes

| Structure (SMILES) | Ki (Central CCK Receptors; [2]) [nM] | Inhibition of Feeding on Rat Palatable Diet Assay I.P. MPE50 [1] [mg/kg] | Ki (Central CCK Receptors) [nM] |
| --- | --- | --- | --- |
| CC(Cc1c[nH]c2ccccc12)(NC(=O)OC12CC3CC(CC(C3)C1)C2)C(=O)NCCc1ccccc1 (racemic) [Example 1, (±)-Tricyclo[3.3.1^3,7]dec-1-yl [1-(1H-indol-3-ylmethyl)-1-methyl-2-oxo-2-[(2-phenylethyl)amino]ethyl]carbamate] | 1230 | – | – |
| CC(Cc1c[nH]c2ccccc12)(NC(=O)O[C@@H]1CCCC[C@H]1Cl)C(=O)NCCc1ccccc1 (mixture of isomers) [Example 2, (±)-Trans-2-chlorocyclohexyl [1-(1H-indol-3-ylmethyl)-1-methyl-2-oxo-2-[(2-phenylethyl)amino]ethyl]carbamate] | – | 9.6 | 3150 |
| CC(Cc1c[nH]c2ccccc12)(NC(=O)O[C@@H]1CCCC[C@H]1Cl)C(=O)NC(CO)Cc1ccccc1 (mixture of isomers) [Example 3, (±)-Trans-2-chlorocyclohexyl [2-[[1-(hydroxymethyl)-2-phenyethyl]amino]-1-(1H-indol-3-ylmethyl)-1-methyl-2-oxoethyl]carbamate. (D-tryptophan residue; L-phenylalanine residue).] | 260 | 30.7 | – |
| CC(Cc1c[nH]c2ccccc12)(NC(=O)OC1CC2CCC1(C)C2(C)C)C(=O)NCCc1ccccc1 (racemic) [Example 7, (±)-Endo-1,7,7-trimethylbicyclo[2.2.1]hept-2-yl-[1-(1H-indol-3-ylmethyl)-1-methyl-2-oxo-2-[(2-phenylethyl)amino]ethyl]-carbamate] | 760 | – | – |
| CC(Cc1c[nH]c2ccccc12)(NC(=O)OC1CC2CCC1(C)C2(C)C)C(=O)NCCc1ccccc1 (racemic) [Example 8, (±)-Exo-1,7,7-trimethylbicyclo[2.2.1]hept-2-yl-[1-(1H-indol-3-ylmethyl)-1-methyl-2-oxo-2-[(2-phenylethyl)amino]ethyl]-carbamate] | 840 | – | – |
| CC(Cc1c[nH]c2ccccc12)(NC(=O)OC1CC2CCC1C2)C(=O)NCCc1ccccc1 (racemic) [Example 9, (±)-Exo-bicyclo[2.2.1]hept-2-yl [1-(1H-indol-3-ylmethyl)-1-methyl-2-oxo-2-[(2-phenylethyl)amino]ethyl]carbamate] | 7500 | – | – |
| CC(Cc1c[nH]c2ccccc12)(NC(=O)OC1CC2CCC1C2)C(=O)NCCc1ccccc1 (racemic) [Example 10, (±)-Endo-bicyclo[2.2.1]hept-2-yl [1-(1H-indol-3-ylmethyl)-1-methyl-2-oxo-2-[(2-phenylethyl)amino]ethyl]carbamate] | 8800 | – | – |
| CC(Cc1c[nH]c2ccccc12)(NC(=O)O[C@@H]1CCCC[C@H]1Cl)C(=O)NC(CO)Cc1ccccc1 (mixture of isomers) [Example 14, (±)-trans-2-Chlorocyclohexyl-[2-[[1-(hydroxymethyl)-2-phenylethyl]amino]-1-(1H-indol-3ylmethyl)-1-methyl-2-oxoethyl]carbamate] | 10500 | 19.5 | – |
| CC(Cc1c[nH]c2ccccc12)(NC(=O)OC1C2CC3CC(C2)CC1C3)C(=O)NCC(NC(=O)C1CC1C(=O)O)c1ccccc1 (racemic) [Example 32, 2-[[[2-[[3-(1H-indol-3-yl)-2-methyl-1-oxo-2-[[(tricyclo-[3.3.1.1^3,7]dec-2-yloxy)carbonyl]amino]propyl]amino]-1-phenylethyl]amino]carbonyl]cyclopropanecarboxylic acid (cyclopropane ring is trans-(±)othercentersare R)] | 5.1 | – | – |
| C[C@](Cc1c[nH]c2ccccc12)(NC(=O)CC12CC3CC(CC(C3)C1)C2)C(=O)N[C@H](CO)Cc1ccccc1 (relative stereo) [Example 5, [R-(R*,S*)]-N-[1-(hydroxymethyl)-2-phenylethyl]-α-methyl-α-[[tricyclo[3.3.1.1^3,7]dec-1-ylacetyl)-amino]-1H-indole-3-propanamide] | 2230 | 33.6 | – |
| CC1CCCCC1OC(=O)NC(C)(Cc1c[nH]c2ccccc12)C(=O)NCC(NC(=O)CCC(=O)O)c1ccccc1 (single isomer, unassigned) [Example 40, Butanoic acid, 4-[[2-[[3-(1H-indol-3-yl)-2-methyl-2-[[[(2-methyl-1-cyclohexyl)oxy]carbonyl]amino]-1-oxopropyl]amino]-1-phenylethyl]amino]-4-oxo-[1R-[1α[R*(R*)]2β]]-((-)-isomer)] | 3.9 | – | – |
| CC1CCCCC1OC(=O)NC(C)(Cc1c[nH]c2ccccc12)C(=O)NCC(NC(=O)C=CC(=O)O)c1ccccc1 (single isomer, unassigned) [Example 41, 2-Butenoic acid, 4-[[2-[[3-(1H-indol-3-yl)-2-methyl-2-[[[(2-methyl-1-cyclohexyl)oxy]carbonyl]amino]-1-oxopropyl]amino]-1-phenylethyl]amino]-4-oxo-, [1R -[1α[R*(R*)], 2β]]-((-)-isomer)] | 0.29 | – | – |
| CC1CCCCC1OC(=O)NC(C)(Cc1c[nH]c2ccccc12)C(=O)NC(CNC(=O)C=CC(=O)O)Cc1ccccc1 (single isomer, unassigned) [Example 43, 2-Butenoic acid, 4-[[2-[[3-)1H-indol-3-yl)-2-methyl-2-[[[(2-methyl-1-cyclohexyl)oxy]carbonyl]amino]-1-oxopropyl]amino]-3-phenylpropyl]amino]-4-oxo-[IR[1α[R*(S*)], 2β]]-((-)-isomer)] | 4 | – | – |
| CC(Cc1c[nH]c2ccccc12)(NC(=O)OC1CCCCC1Cl)C(=O)NC(COC(=O)CCC(=O)O)Cc1ccccc1 (centres unmarked) [Example 4, 2-[[2-[[[2-chlorocyclohexyl)oxy]-carbonyl]amino]-3-(1H-indol-3-yl)-2-methyl-1-oxo-propyl]amino]-3-phenylpropyl butanedioate] | 170 | > 20 | – |
| C[C@](Cc1c[nH]c2ccccc12)(NC(=O)OC1CC2CC3CC(C2)C1C3)C(=O)N[C@H](CO)Cc1ccccc1 (some centres unmarked) [Example 11] | – | – | 54 |
| CC(Cc1c[nH]c2ccccc12)(NC(=O)OC1CC2CC3CC(C2)C1C3)C(=O)NC(COC(=O)CCC(=O)O)Cc1ccccc1 (centres unmarked) [Example 12, 2-[3-1H-indol-3-yl)-2-methyl-2-[[[(octahydro-2,5-methano-1H-inden-7-yl)oxy]carbonyl]amino]-1-oxopropyl]-3-phenylpropyl butanedioate] | 85 | – | – |
| CC(Cc1c[nH]c2ccccc12)(NC(=O)OC1C2CC3CC(C2)CC1C3)C(=O)NC(CO)Cc1ccccc1 (stereo not drawn) [Example 15, [R-(R*,S*)]-Tricyclo[3.3,1.1^3,7]dec-2-yl-[2-[[1-(hydroxymethyl)-2-phenylethyl]amino]-1-(1H-indol-3-ylmethyl)-1-methyl-2-oxoethyl]carbamate] | 26 | 15.7 | – |
| CC(Cc1c[nH]c2ccccc12)(NC(=O)OC1C2CC3CC(C2)CC1C3)C(=O)NCC(OC(=O)CCC(=O)O)c1ccccc1 (centres unmarked) [Example 17, 2-[[3-(1H-indol-3-yl)-2-methyl-1-oxo-2-[[(tricyclo-[3.3.1.1.^3,7]dec-2-yloxy)carbonyl]amino]propyl]amino]-1-phenylethyl butanedioate] | 63 | 13.1 | – |
| CC(Cc1c[nH]c2ccccc12)(NS(=O)(=O)CC12CCC(CC1=O)C2(C)C)C(=O)NC(CO)Cc1ccccc1 (stereo not drawn) [Example 18, α-[[[(7,7-dimethyl-2-oxobicyclo[2.2.1]-hept-1-yl)-methyl]sulfonyl]amino]-N-[1-(hydroxymethyl)-2-phenylethyl]-α-methyl-1H-indole-3-propanamide-(Trpcenter R, phenylalanylcenter S)] | 21000 | – | – |
| CC(Cc1c[nH]c2ccccc12)(NC(=O)OC1C2CC3CC(C2)CC1C3)C(=O)NC(CNC(=O)CCC(=O)O)Cc1ccccc1 (stereo not drawn) [Example 19, [R-(R*,S*)]-4-[[2-[[3-(1H-indol-3-yl)-2-methyl-1-oxo-2-[[(tricyclo[3.3.1.1^3,7]dec-2-yloxy)carbonyl]amino]propyl]amino]-3-phenylpropyl]amino]-4-oxobutanoic acid] | 14 | – | – |
| CC(Cc1c[nH]c2ccccc12)(NC(=O)OC1C2CC3CC(C2)CC1C3)C(=O)NC(CNC(=O)C=CC(=O)O)Cc1ccccc1 (stereo not drawn) [Example 19A, [R-(R*,S*)]-4-[[2-(1H-Indol-3-yl)-2-methyl-1-oxo-2-[[tricyclo[3.3.1.1^3,7]dec-2-yloxylcarbonyl]amino]propyl]-amino]-3-phenylpropyl]amino]-4-oxo-2-butenoic acid] | 0.08 | – | – |
| CC(Cc1c[nH]c2ccccc12)(NC(=O)OC1C2CC3CC(C2)CC1C3)C(=O)NCC(NC(=O)CCc1nn[nH]n1)c1ccccc1 (stereo not drawn) [Example 33, Tricyclo[3.3.1.1^3,7]dec-2-yl [R,(R*,S*]-[1-(1H-indol-3-ylmethyl)-1-methyl-2-oxo-2-[[2-[[1-oxo-3-(1H -tetrazol-5-yl)propyl]amino]-2-phenylethyl]-amino]ethyl]carbamic acid ester] | 6 | – | – |
